The target of one experiment is BRD4-BD1 (44-164) (Homo sapiens (Human), UniProt O60885). Description: Alphascreen binding assay BRD4-BD1. Conditions: BRD4(1) H4; read-out: Biochemical activity (IC50 μM) BRD4(1) H4. In a few lines: (§1)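 In this competition format, compounds displace a biotinylated tetra-acetyl H4 peptide from E. coli-expressed human BRD4 bromodomain constructs captured on nickel chelate beads. The reaction runs at pH 7.5 with 2 mM DTT and detergent for 1 h at room temperature before a 30 min bead step.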
Background: Alpha assays give light when donor and acceptor beads are brought close together.

In a further experiment the target is BRD4-BD12 (1-477) (Homo sapiens (Human), UniProt O60885). Briefly: Alphascreen binding assay BRD4-BD12. As to conditions: BRD4(1 2) H4; read-out: Biochemical activity (IC50 μM) BRD4(1 2) H4. In a few lines: as §1
Another experiment relates to bromodomain. Description: at least one of the bromodomain cell assays of Example 57. As to conditions: at least one of the bromodomain cell assays described in Example 57; read-out: IC50 in at least one of the bromodomain cell assays. It counts as cell-based.
For a further experiment, the system named is MV-4-11 cells. Description: Oncology cell growth assay MV-4-11 (CellTiter Glo). It counts as cell-based. Conditions: Homo sapiens, MV4-11, 72 h; read-out: Cell activity (IC50 μM) MV-4-11 3d-Growth. In a few lines: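 Growth read by CellTiter Glo luminescence after 72 h compound treatment of MLL-AF4-bearing MV-4-11 cells (3000/well). Titration: 8 points, 1:3 steps, maximum 10 μM, 0.2% DMSO final. Data normalized to DMSO wells, four-parameter fit gives pIC50.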
For orientation: ATP-based viability assays read luminescence as a measure of living cells.

SMILES strings stand for the structures.

What is called IC50 is the concentration at which inhibition is half-maximal.

Turning to `Cc1noc(C)c1-c1cnc2c(I)cn(CC3CC(F)(F)C3)c2c1` [P-0303, 4-[1-[(3,3-difluorocyclobutyl)methyl]-3-iodo-pyrrolo[3,2-b]pyridin-6-yl]-3,5-dimethyl-isoxazole], the IC50 at BRD4-BD1 (44-164) was less than 1 µM; at BRD4-BD12 (1-477) it was less than 1 µM; in the experiment with bromodomain it was less than 10000 nM; with MV-4-11 cells, less than 1 µM.

With `Cc1noc(C)c1-c1cnc2c(-c3cnn(C(F)F)c3)cn(CC3CC(F)(F)C3)c2c1` [P-0304], the IC50 at BRD4-BD1 (44-164) is less than 1 µM; on BRD4-BD12 (1-477), less than 1 µM; in the experiment on bromodomain, less than 10000 nM; in the experiment with MV-4-11 cells, less than 1 µM.

For the compound `Cc1noc(C)c1-c1cnc2c(-c3cnn(CC(F)(F)F)c3)cn(CC3CC(F)(F)C3)c2c1` [P-0305, 4-[1-[(3,3-difluorocyclobutyl)methyl]-3-[1-(2,2,2-trifluoroethyl)pyrazol-4-yl]pyrrolo[3,2-b]pyridin-6-yl]-3,5-dimethyl-isoxazole], the IC50 at BRD4-BD1 (44-164) is less than 1 µM; on BRD4-BD12 (1-477) it was less than 1 µM; in the experiment with bromodomain, less than 10000 nM; in the experiment on MV-4-11 cells it was less than 1 µM.

`Cc1noc(C)c1-c1cnc2c(Cl)cn(CC3CCC(F)(F)CC3)c2c1` [P-0306, 4-[3-chloro-1-[(4,4-difIuorocyclohexyl)methyl]pyrrolo[3,2-b]pyridin-6-yl]-3,5-dimethyl-isoxazole]: the IC50 at BRD4-BD1 (44-164) was less than 1 µM; on BRD4-BD12 (1-477), less than 1 µM; in the experiment on bromodomain, less than 10000 nM; with MV-4-11 cells, less than 1 µM.

`Cc1noc(C)c1-c1cnc2c(Cl)cn(C(CC#N)C3CC3)c2c1` (stereo not shown) [P-0307, 3-[3-chloro-6-(3,5-dimethylisoxazol-4-yl)pyrrolo[3,2-b]pyridin-1-yl]-3-cyclopropyl-propanenitrile]: the IC50 on BRD4-BD1 (44-164) was less than 1 µM; on BRD4-BD12 (1-477), less than 1 µM; in the experiment with bromodomain, less than 10000 nM; with MV-4-11 cells, 1 to 10 µM.

Turning to `Cc1noc(C)c1-c1cnc2c(Br)cn(C(CC#N)C3CC3)c2c1` (stereo not shown) [P-0308, 3-[3-bromo-6-(3,5-dimethylisoxazol-4-yl)pyrrolo[3,2-b]pyridin-1-yl]-3-cyclopropxl-propanenitrile], the IC50 is less than 1 µM at BRD4-BD1 (44-164), less than 1 µM on BRD4-BD12 (1-477), less than 10000 nM with bromodomain and less than 1 µM with MV-4-11 cells.

With `Cc1noc(C)c1-c1cnc2c(I)cn(C(CC#N)C3CC3)c2c1` (stereo not shown) [P-0309, 3-cyclopropyl-3-[6-(3,5-dimethylisoxazol-4-yl)-3-iodo-pyrrolo[3,2-b]pyridin-1-yl]propanenitrile], the IC50 on BRD4-BD1 (44-164) was less than 1 µM; on BRD4-BD12 (1-477), less than 1 µM; with bromodomain, less than 10000 nM; in the experiment with MV-4-11 cells, less than 1 µM.

Consider `Cc1nnn(C)c1-c1cnc2c(-c3cnn(C)c3)cn(CC3CCC(F)(F)CC3)c2c1` [P-0310, 1-[(4,4-difluorocyclohexyl)methyl]-6-(3,5-dimethyltriazol-4-yl)-3-(1-methylpyrazol-4-yl)pyrrolo[3,2-b]pyridine], for which the IC50 was less than 1 µM at BRD4-BD1 (44-164), less than 1 µM on BRD4-BD12 (1-477), less than 10000 nM in the experiment on bromodomain and less than 1 µM with MV-4-11 cells.

Take `Cc1nnn(C)c1-c1cnc2c(-c3cnn(CC(F)(F)F)c3)cn(CC3CCC(F)(F)CC3)c2c1` [P-0311, 1-[(4,4-difluorocyclohexyl)methyl]-6-(3,5-dimethyltriazol-4-yl)-3-[1-(2,2,2-trifluoroethyl)pyrazol-4-yl]pyrrolo[3,2-b]pyridine]: the IC50 is less than 1 µM at BRD4-BD1 (44-164), 1 to 10 µM on BRD4-BD12 (1-477), less than 10000 nM with bromodomain and less than 1 µM with MV-4-11 cells.

For `COc1ccc(-c2cnc3ccn(CC4CCC(F)(F)CC4)c3c2)cn1` [P-0312, 1-((4,4-difluorocyclohexyl)methyl]-6-(6-methoxy-3-pyridyl)pyrrolo[3,2-b]pyridine], the IC50 at BRD4-BD1 (44-164) is 1 to 10 µM; on BRD4-BD12 (1-477), 10 to 200 µM; in the experiment with bromodomain, less than 10000 nM; in the experiment on MV-4-11 cells, 10 to 200 µM.

For the origin of these results see patent US10519177B2, “Heterocyclic compounds and uses thereof” (Plexxikon Inc., priority 2013, dated 2019).
